Source: patent US11730720B2, “ALK5 inhibitors” (THERAVANCE BIOPHARMA R&D IP, LLC, priority 2018, dated 2023)

Assays:
[1] = test system: TGF-β-stimulated SMAD3 phosphorylation in BEAS-2B cells; test: Cellular ALK5 potency assay, inhibition of TGF-β stimulated pSMAD3 formation in BEAS-2B cells; type: cell-based; details: Homo sapiens, inhibition of TGF-β (10 ng/mL) stimulated pSMAD3 formation, 1 hour compound incubation, read-out: BEAS2B pIC50 (converted)
In short: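 Phospho-SMAD3 was quantified by AlphaLISA in lysates of human lung epithelial BEAS-2B cells. Compound was added 1 h (37 °C, HEPES/BSA-supplemented HBSS) before a 30 min challenge with 10 ng/mL TGF-β. Values are pIC50 relative to stimulated cells without compound.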

[2] = biological target: T1, recombinant human ALK5 (TGF-βR1) protein (Homo sapiens, UniProt P36897); test: Biochemical ALK5 (TGF-βR1) assay to measure pKi (LANCE Ultra ULight kinase assay); details: apparent pKi, converted from pIC50 using the Cheng-Prusoff equation
T1 construct: purchased Life Technologies PR9075A
T1 sequence (P36897 34-503): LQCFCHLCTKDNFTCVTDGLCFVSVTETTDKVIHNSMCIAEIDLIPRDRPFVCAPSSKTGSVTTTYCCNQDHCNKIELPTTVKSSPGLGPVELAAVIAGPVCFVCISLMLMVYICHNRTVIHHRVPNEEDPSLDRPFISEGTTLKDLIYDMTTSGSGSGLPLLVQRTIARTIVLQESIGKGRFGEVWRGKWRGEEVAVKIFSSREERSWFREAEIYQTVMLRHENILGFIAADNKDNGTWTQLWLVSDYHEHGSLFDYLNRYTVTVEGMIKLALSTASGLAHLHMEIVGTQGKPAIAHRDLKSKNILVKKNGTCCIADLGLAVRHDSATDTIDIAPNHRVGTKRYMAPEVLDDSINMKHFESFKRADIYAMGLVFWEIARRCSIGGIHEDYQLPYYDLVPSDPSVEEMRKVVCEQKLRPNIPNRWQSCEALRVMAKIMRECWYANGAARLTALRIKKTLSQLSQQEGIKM
In short: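 TR-FRET kinase format: compound dose range 10 μM–25 pM equilibrated 60 min with human ALK5 and ULight-labelled topoisomerase 2α peptide in HEPES/MgCl2 buffer pH 7.5 with DTT. Reaction started with ATP (125 μM stock, 5× final), 60 min at 37° C, stopped with EDTA/Eu-anti-phospho antibody; pKi derived from pIC50 via Cheng-Prusoff.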

Row | Structure (SMILES) | IC50 [1] | Ki [2]
1 | CN1CC=C(c2cnc3ccc(-c4c[nH]nc4-c4cc(Cl)ccc4F)nc3c2)C1 [Compound 1-97, 2-[3-(5-chloro-2-fluoro-phenyl)-1H-pyrazol-4-yl]-7-(1-methyl-2,5-dihydropyrrol-3-yl)-1,5-naphthyridine] | ≤ 20 nM | ≤ 0.0316 nM
2 | Fc1ccc(Cl)cc1-c1[nH]cnc1-c1ccc2ncc(-c3cc4n(n3)CCNC4)cc2n1 [Compound 2-21, 2-(5-(5-chloro-2-fluorophenyl)-1H-imidazol-4-yl)-7-(4,5,6,7-tetrahydropyrazolo[1,5-a]pyrazin-2-yl)-1,5-naphthyridine] | 25.1 to 158 nM | 0.0398 to 0.316 nM
3 | Fc1ccc(Cl)cc1-c1n[nH]cc1-c1ccc2ncc(-c3cn(Cc4c[nH]cn4)nn3)cc2n1 [Compound 1-111, 2-[3-(5-chloro-2-fluoro-phenyl)-1H-pyrazol-4-yl]-7-[1-(1H-imidazol-4-ylmethyl)triazol-4-yl]-1,5-naphthyridine] | 25.1 to 158 nM | ≤ 0.0316 nM
4 | Fc1cc(F)c(-c2n[nH]cc2-c2ccc3ncc(NCCN4CCNCC4)cc3n2)cc1Cl [Compound 6-9, 6-[3-(5-chloro-2,4-difluoro-phenyl)-1H-pyrazol-4-yl]-N-(2-piperazin-1-ylethyl)-1,5-naphthyridin-3-amine] | 25.1 to 158 nM | 0.0398 to 0.316 nM
5 | CN(CC1CNC1)c1cnc2ccc(-c3c[nH]nc3-c3cc(Cl)ccc3F)nc2c1 [Compound 1-41, N-(azetidin-3-ylmethyl)-6-[3-(5-chloro-2-fluoro-phenyl)-1H-pyrazol-4-yl]-N-methyl-1,5-naphthyridin-3-amine] | 25.1 to 158 nM | 0.0398 to 0.316 nM
6 | CNC1CN(c2cnc3ccc(-c4c[nH]nc4-c4cc(Cl)c(F)cc4F)nc3c2)C1 [Compound 6-31, 1-[6-[3-(5-chloro-2,4-difluoro-phenyl)-1H-pyrazol-4-yl]-1,5-naphthyridin-3-yl]-N-methyl-azetidin-3-amine] | ≤ 20 nM | 0.0398 to 0.316 nM
7 | CNC1CCN(c2cnc3ccc(-c4c[nH]nc4-c4ccc(F)c(F)c4)nc3c2)CC1 [Compound 8-6, 1-[6-[3-(3,4-difluorophenyl)-1H-pyrazol-4-yl]-1,5-naphthyridin-3-yl]-N-methyl-piperidin-4-amine] | 25.1 to 158 nM | 0.398 to 3.16 nM
8 | Fc1ccc(-c2n[nH]cc2-c2ccc3ncc(-c4cn[nH]c4)cc3n2)cc1F [Compound 8-13, 2-[3-(3,4-difluorophenyl)-1H-pyrazol-4-yl]-7-(1H-pyrazol-4-yl)-1,5-naphthyridine] | ≤ 20 nM | 0.398 to 3.16 nM
9 | Fc1ccc(Cl)cc1-c1n[nH]cc1-c1ccc2ncc(NCC3CCCNC3)cc2n1 (centres unmarked) [Compound 1-117, 6-[3-(5-chloro-2-fluoro-phenyl)-1H-pyrazol-4-yl]-N-(3-piperidylmethyl)-1,5-naphthyridin-3-amine] | 200 to 1260 nM | 0.398 to 3.16 nM
10 | Fc1ccc(Cl)cc1-c1[nH]cnc1-c1ccc2ncc(-c3cnc4n3CCNC4)cc2n1 [Compound 2-24, 2-[5-(5-chloro-2-fluoro-phenyl)-1H-imidazol-4-yl]-7-(5,6,7,8-tetrahydroimidazo[1,2-a]pyrazin-3-yl)-1,5-naphthyridine] | 25.1 to 158 nM | 0.0398 to 0.316 nM
11 | CNCCn1cc(-c2cnc3ccc(-c4c(-c5cc(Cl)ccc5F)nnn4Cc4cccnc4)cc3c2)cn1 [Compound 20-1, 2-(4-(6-(4-(5-chloro-2-fluorophenyl)-1-(pyridin-3-ylmethyl)-1H-1,2,3-triazol-5-yl)quinolin-3-yl)-1H-pyrazol-1-yl)-N-methylethan-1-amine] | 25.1 to 158 nM | 0.0398 to 0.316 nM
12 | Fc1ccc(Cl)cc1-c1[nH]nnc1-c1ccc2ncc(-c3cn[nH]c3)cc2c1 [Compound 18-2, 6-[5-(5-chloro-2-fluoro-phenyl)-1H-triazol-4-yl]-3-(1H-pyrazol-4-yl)quinoline] | ≤ 20 nM | 0.0398 to 0.316 nM
13 | N[C@@H]1CCCC[C@H]1n1cc(-c2cnc3ccc(-c4nc[nH]c4-c4cc(Cl)c(F)cc4F)cc3c2)cn1 [Compound 7-7, (1R,2R)-2-[4-[6-[5-(5-chloro-2,4-difluoro-phenyl)-1H-imidazol-4-yl]-3-quinolyl]pyrazol-1-yl]cyclohexanamine] | 25.1 to 158 nM | 0.0398 to 0.316 nM
14 | CC(C)N1CCN(c2cnc3ccc(-c4c[nH]nc4-c4ccc(F)c(F)c4)nc3c2)CC1 [Compound 8-10, 2-[3-(3,4-difluorophenyl)-1H-pyrazol-4-yl]-7-(4-isopropylpiperazin-1-yl)-1,5-naphthyridine] | 25.1 to 158 nM | 0.398 to 3.16 nM
15 | CNCCn1cc(-c2cnc3ccc(-c4nc[nH]c4-c4cc(Cl)c(F)cc4F)cc3c2)cn1 [Compound 22-2, 2-(4-(6-(5-(5-chloro-2,4-difluorophenyl)-1H-imidazol-4-yl)quinolin-3-yl)-1H-pyrazol-1-yl)-N-methylethan-1-amine] | 25.1 to 158 nM | 0.0398 to 0.316 nM
16 | Fc1ccc(Cl)cc1-c1[nH]nnc1-c1ccc2ncc(N3CCCNCC3)cc2c1 [Compound 18-7, 6-[5-(5-chloro-2-fluoro-phenyl)-1H-triazol-4-yl]-3-(1,4-diazepan-1-yl)quinoline] | 200 to 1260 nM | 3.98 to 31.6 nM
17 | CC(C)N1CCN(CCNc2cnc3ccc(-c4nc[nH]c4-c4cc(Cl)ccc4F)cc3c2)CC1 [Compound 17-3, 6-(5-(5-chloro-2-fluorophenyl)-1H-imidazol-4-yl)-N-(2-(4-isopropylpiperazin-1-yl)ethyl)quinolin-3-amine] | 25.1 to 158 nM | 0.398 to 3.16 nM
18 | NCCn1cc(-c2cnc3ccc(-c4nc[nH]c4-c4cc(Cl)c(F)cc4F)cc3c2)cn1 [Compound 22-3, 2-[4-[6-[5-(5-chloro-2,4-difluoro-phenyl)-1H-imidazol-4-yl]-3-quinolyl]pyrazol-1-yl]ethanamine] | 25.1 to 158 nM | 0.0398 to 0.316 nM
19 | CC1(C)CCCN1CCNc1cnc2ccc(-c3nc[nH]c3-c3cc(Cl)ccc3F)nc2c1 [Compound 2-3, 6-[5-(5-chloro-2-fluoro-phenyl)-1H-imidazol-4-yl]-N-[2-(2,2-dimethylpyrrolidin-1-yl)ethyl]-1,5-naphthyridin-3-amine] | 25.1 to 158 nM | 0.0398 to 0.316 nM
20 | COCc1cccc(-c2n[nH]cc2-c2ccc3ncc(-c4cnn(CC5CNC5)c4)cc3n2)c1 [Compound 14-11, 7-[1-(azetidin-3-ylmethyl)pyrazol-4-yl]-2-[3-[3-(methoxymethyl)phenyl]-1H-pyrazol-4-yl]-1,5-naphthyridine] | 25.1 to 158 nM | 0.0398 to 0.316 nM
21 | CN1CCN(CCNc2cnc3ccc(-c4c[nH]nc4-c4cc(Cl)ccc4F)nc3c2)CC1 [Compound 1-12, 6-[3-(5-chloro-2-fluoro-phenyl)-1H-pyrazol-4-yl]-N-[2-(4-methylpiperazin-1-yl)ethyl]-1,5-naphthyridin-3-amine] | ≤ 20 nM | 0.0398 to 0.316 nM
22 | CNCCn1cc(-c2cnc3ccc(-c4nc[nH]c4-c4cc(Cl)c(F)cc4F)nc3c2)cn1 [Compound 7-4, 2-(4-(6-(5-(5-chloro-2,4-difluorophenyl)-1H-imidazol-4-yl)-1,5-naphthyridin-3-yl)-1H-pyrazol-1-yl)-N-methylethan-1-amine] | 25.1 to 158 nM | 0.0398 to 0.316 nM
23 | O=Cc1cnc2ccc(-c3c[nH]nc3-c3cc(Cl)ccc3F)nc2c1 [Compound 1-101, 6-[3-(5-chloro-2-fluoro-phenyl)-1H-pyrazol-4-yl]-1,5-naphthyridine-3-carbaldehyde] | ≤ 20 nM | 0.398 to 3.16 nM
24 | CN1CCN(C2CCN(c3cnc4ccc(-c5nc[nH]c5-c5cc(Cl)ccc5F)nc4c3)CC2)CC1 [Compound 2-10, 2-[5-(5-chloro-2-fluoro-phenyl)-1H-imidazol-4-yl]-7-[4-(4-methylpiperazin-1-yl)-1-piperidyl]-1,5-naphthyridine] | 25.1 to 158 nM | 0.0398 to 0.316 nM
25 | Fc1cc(F)c(-c2n[nH]cc2-c2ccc3ncc(-c4[nH]nc5c4CCN5)cc3n2)cc1Cl [Compound 6-59, 2-[3-(5-chloro-2,4-difluoro-phenyl)-1H-pyrazol-4-yl]-7-(2,4,5,6-tetrahydropyrrolo[2,3-c]pyrazol-3-yl)-1,5-naphthyridine] | 25.1 to 158 nM | 0.0398 to 0.316 nM
26 | CNCCn1cc(-c2cnc3ccc(-c4nc[nH]c4-c4cccc(COC)c4)nc3c2)cn1 [Compound 15-3, 2-(4-(6-(5-(3-(methoxymethyl)phenyl)-1H-imidazol-4-yl)-1,5-naphthyridin-3-yl)-1H-pyrazol-1-yl)-N-methylethan-1-amine] | 25.1 to 158 nM | 0.0398 to 0.316 nM
27 | CN1CCC(Nc2cnc3ccc(-c4c[nH]nc4-c4cc(Cl)ccc4F)nc3c2)CC1 [Compound 1-3, 6-[3-(5-chloro-2-fluoro-phenyl)-1H-pyrazol-4-yl]-N-(1-methyl-4-piperidyl)-1,5-naphthyridine-3-amine] | ≤ 20 nM | 0.0398 to 0.316 nM
28 | Fc1cc(F)c(-c2n[nH]cc2-c2ccc3ncc(-c4ncc5n4CCNC5)cc3n2)cc1Cl [Compound 6-51, 2-[3-(5-chloro-2,4-difluoro-phenyl)-1H-pyrazol-4-yl]-7-(5,6,7,8-tetrahydroimidazo[1,5-a]pyrazin-3-yl)-1,5-naphthyridine] | 25.1 to 158 nM | 0.398 to 3.16 nM
